Patent US8597904B2, “Pharmaceutical compositions for the treatment of conditions responsive to proteasome inhibition” (priority 2007, dated 2013)

Assays:
[1] = tested on: microtubule-associated protein 1 light chain 3 (LC3); experiment: immunoblot of LC3 conversion (autophagy) in SK-N-SH cells; format: cell-based, human
Experimental: To verify whether autophagy is induced in GlbA-treated cells, levels of microtubule-associated protein 1 light chain 3 (LC3), a reliable marker of autophagosomes, were measured. […] Therefore, this characteristic conversion of LC3 can be used to monitor autophagic activity. SK-N-SH cells were treated with GlbA in the presence or absence of 3-MA, and cell lysates were probed with LC3.

LAN-1 cells = experiment: sulphorhodamine B (SRB) cell viability / proliferation assay; format: cell-based, human
Source text: (§1) The mammalian cell lines used to test the effects of syringolin A were human neuroblastoma (NB) cells with either wild type p53 (line SK-N-SH, provided by the American Type Culture Collection [ATCC], Manassas, Va.; Davidoff, et al. 1992. Oncogene 7:127-133; McKenzie, et al. 1999. Clin. Cancer Res. 5:4199-4207; Tweddle, et al. 2001. Am. J. Pathol. 158:2067-2077), mutant p53 (line LAN-1, cysteine to stop codon at residue 182, provided by Dr. Robert Seeger, University of California, Los Angeles, Calif.; Davidoff, et al. 1992. Oncogene 7:127-133; Tweddle, et al. 2001. Cancer Res. 61:8-13; Tweddle, et al. 2003. Cancer Lett. 197:93-98), or human ovarian cancer cells (line SKOV3, provided by Dr. Bonnie Warn-Cramer, Cancer Research Center of Hawaii). NB cells were maintained in RPMI 1640 (Biosource, Rockville, Md.) containing 10% (v/v) heat-inactivated fetal bovine serum (FBS) (Invitrogen, Carlsbad, Calif.), penicillin (100 IU/ml), and streptomycin (100 μg/ml) as previously described (Wallick, et al. 2005. Oncogene 24:5606-5618). SKOV3 cells were maintained in McCoy's 5A with L-glutamine (Mediatech Inc., Herndon, Va.) and containing 10% (v/v) heat-inactivated fetal bovine serum […] (Invitrogen, Carlsbad, Calif.) and gentamicin ([…]). Cells were seeded 18-24 hours before GlbA or SylA treatment and analyzed after 24 and/or 48 hours. Cell numbers were determined using a haemacytometer in the presence of trypan blue (Fisher Scientific, Pittsburgh, Pa.).
(§2) To then test the effects of syringolin A on proliferation, cells at 0.25-0.5×10^5 cells per ml were seeded in 96-well microtiter plates containing 100 μl of culture medium per well. After 24 hours, syringolin A was added to wells to a final concentration of 0.5 μm to 100 μm. Syringolin was not added to parallel samples of control cells. Cells were incubated for 48 hours, photographed, and the viability of cells (calculated as a percentage of control cell counts) was determined using the sulphorhodamine B (SRB) assay as previously reported (Skehan, et al. 1990. J. Natl. Cancer Inst. 82:1107-1112, which is incorporated herein by reference in its entirety). In brief, cell culture medium was removed from the microtiter plate and adherent cells were fixed with 10% (w/v) trichloracetic acid (TCA) for 30 minutes at room temperature. Following four washes with tap water, 100 μl of SRB (Sigma Chemical Co., St. Louis, Mo.) (0.4 g/100 ml 1% [v/v] glacial acetic acid in water) was added and the plate was then incubated for 30 minutes at room temperature, and rinsed four times with 3% (v/v) glacial acetic acid. After addition of 200 μl of 10 mM […] (not pH adjusted) to each well, the plate was incubated on an orbital shaker for 30 minutes until the SRB was uniformly dissolved. The absorption at a wavelength of 560 nm was read using an HTS 7000 Plus Bioassay Reader or a Victor 3, 1420 Multilabel Counter (PerkinElmer, Inc. Boston, Mass.). To record cell morphology with and without syringolin treatment, photomicrographs were taken of cells in 12-well plates or 96-well plates, in the presence or absence of 25 μM syringolin A, using a Nikon Diaphot inverted microscope (Nikon Corp., Tokyo, Japan) and a Carl Zeiss Axiovert 200M inverted microscope (Carl Zeiss, Goettingen, Germany), both equipped with a digital camera and computer software for image processing. Power of magnification for SK-N-SH, LAN-1, and SKOV3 cells was 20×, and for Rat-1 cells was 10×.

SK-N-SH cells = experiment: as above; format: cell-based, human; settings: 48 hours
Source text: as §1, §2

[2] = tested on: β-actin, procaspase-3 and protein kinase Akt/PKB; experiment: Western blot of β-actin, procaspase-3 and Akt/PKB in syringolin A-treated cells; format: cell-based, human; settings: 20 μM, 48 hours
SKOV3 cells [3] = experiment: sulphorhodamine B (SRB) cell viability / proliferation assay; format: cell-based, human
Source text: The mammalian cell lines used to test the effects of syringolin A were human neuroblastoma (NB) cells with either wild type p53 (line SK-N-SH, provided by the American Type Culture Collection [ATCC], Manassas, Va.; Davidoff, et al. 1992. Oncogene 7:127-133; McKenzie, et al. 1999. Clin. Cancer Res. 5:4199-4207; Tweddle, et al. 2001. Am. J. Pathol. 158:2067-2077), mutant p53 (line LAN-1, cysteine to stop codon at residue 182, provided by Dr. Robert Seeger, University of California, Los Angeles, Calif.; Davidoff, et al. 1992. Oncogene 7:127-133; Tweddle, et al. 2001. Cancer Res. 61:8-13; Tweddle, et al. 2003. […] Cells were seeded 18-24 hours before GlbA or SylA treatment and analyzed after 24 and/or 48 hours. Cell numbers were determined using a haemacytometer in the presence of trypan blue (Fisher Scientific, Pittsburgh, Pa.).
To then test the effects of syringolin A on proliferation, cells at 0.25-0.5×10^5 cells per ml were seeded in 96-well microtiter plates containing 100 μl of culture medium per well. […] Cells were incubated for 48 hours, photographed, and the viability of cells (calculated as a percentage of control cell counts) was determined using the sulphorhodamine B (SRB) assay as previously reported (Skehan, et al. 1990. J. Natl. Cancer Inst. 82:1107-1112, which is incorporated herein by reference in its entirety). […]

[4] = biological target: T1, proteasome activity in SK-N-SH neuroblastoma cells (Homo sapiens, UniProt P28074); settings: read-out: IC50 of proteasomal activity, previously determined, Groll et al. 2008; cited from earlier work
T1 construct: endogenous in cells; host or cells: SK-N-SH
T1 sequence (P28074 60-263): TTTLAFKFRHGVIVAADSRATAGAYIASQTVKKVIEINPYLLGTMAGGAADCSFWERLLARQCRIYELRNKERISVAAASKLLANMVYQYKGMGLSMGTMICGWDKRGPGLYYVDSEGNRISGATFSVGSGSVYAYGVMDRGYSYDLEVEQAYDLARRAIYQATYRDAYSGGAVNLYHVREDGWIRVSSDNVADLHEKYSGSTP

SKOV3 cells [5] = settings: values from previous studies with SylA (Coleman et al. 2006); cited from earlier work
bovine pancreas trypsin = biological target: T2, bovine pancreas trypsin (Bos taurus, UniProt P00760); experiment: SensoLyte Green Protease Fluorometric Assay, trypsin inhibition; format: biochemical; settings: syringolin A up to 500 μM
T2 construct: bovine pancreas trypsin (Pierce); purchased Pierce; host or cells: bovine pancreas
Experimental: To test the specificity of syringolin A inhibition of proteasome activities, bovine pancreas trypsin (Pierce) and Papaya latex papain (Sigma-Aldrich) inhibition assays with syringolin A were performed with the SensoLyte™ Green Protease Fluorometric Assay Kit (AnaSpec., San Jose, Calif., USA) according to the instructions of the manufacturer. Reaction volumes of 100 μl contained an enzyme concentration of 200 ng/ml and various amounts of test inhibitors. Protease activity was monitored at 33° C. in a FluoroCount Microplate Fluorometer (FluoroCount, Packard, Canberra, Australia) using 485 nm excitation and a 550 nm emission filters.

T2 sequence (P00760 24-246): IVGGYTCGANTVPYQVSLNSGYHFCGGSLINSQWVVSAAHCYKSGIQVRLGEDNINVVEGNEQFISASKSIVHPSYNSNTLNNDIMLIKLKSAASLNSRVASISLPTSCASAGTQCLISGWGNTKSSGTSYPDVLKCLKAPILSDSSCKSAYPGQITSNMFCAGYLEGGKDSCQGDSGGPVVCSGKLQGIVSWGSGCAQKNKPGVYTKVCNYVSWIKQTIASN

Row | Compound | GlbA-induced autophagy after pre-treatment with 3-MA ([1]; GlbA with 3-MA pre-treatment) | LC3-II amount / conversion of LC3 ([1]; compared to untreated control cells) | IC50 (LAN-1 cells; Homo sapiens, LAN1, LAN-1, 48 hours, SRB assay, read-out: IC50 (inhibitor concentration at which cell proliferation rate is reduced by 50% relative to control)) [µM] | cell morphology (LAN-1 cells; LAN-1, 25 μM, 48 hours) | cell viability (LAN-1 cells; LAN-1, 0.5 to 100 μm, 48 hours, dose-dependent) | cell morphology (SK-N-SH cells; 25 μM) | cell viability (SK-N-SH cells; 0.5 to 100 μm, dose-dependent) | IC50 (SK-N-SH cells; Homo sapiens, SRB assay, read-out: IC50 (inhibitor concentration at which cell proliferation rate is reduced by 50% relative to control)) [µM] | levels of β-actin, procaspase-3 and protein kinase Akt/PKB [2] | cell morphology (SKOV3 cells [3]; SKOV3, 25 μM, no detachment or floating cells) | cell proliferation rate (SKOV3 cells [3]; SKOV3, dose-dependent) | IC50 [4] [µM] | EC50 (SKOV3 cells [5]) [µM] | trypsin activity (bovine pancreas trypsin)
1 | CCCCCCC/C=C/C=C/C(=O)N[C@H](C(=O)N[C@H]1C[C@@H](O)CCNC(=O)/C=C/[C@H](C)NC1=O)[C@@H](C)O [glidobactin A] | reverted GlbA-induced autophagy | larger amounts of LC3-II | – | – | – | – | – | – | – | – | – | – | – | –
2 | CC(C)[C@H](NC(=O)N[C@H](C(=O)N[C@H]1/C=C/CCNC(=O)/C=C/[C@H](C(C)C)NC1=O)C(C)C)C(=O)O [syringolin A] | – | – | 20 to 25 | induced significant morphological changes | reduced the cell viability | induced significant morphological changes | reduced the cell viability | 20 to 25 | decreased | affected the cell morphology | reduced the cell proliferation rate | 1.43 | ~20 | not affected
